From PMC2937029 (PLoS ONE, 2010)
Read-outs that look alike come from different tables or passages of the source.

What was measured:
HprK/P = target: T1, HprK/P (Brucella melitensis, UniProt Q8YE44)
T1 construct: gene BMEI2034

EI^Ntr = target: T2, EI^Ntr (Brucella melitensis, UniProt Q8YJ96); conditions: labelled compound; 10 µM [32P]PEP, NPr as acceptor, 5 mM MgCl2, pH 7.4, 37°C; covalent phosphoryl transfer
T2 construct: gene BMEI0190
T2 sequence (Q8YJ96 1-756): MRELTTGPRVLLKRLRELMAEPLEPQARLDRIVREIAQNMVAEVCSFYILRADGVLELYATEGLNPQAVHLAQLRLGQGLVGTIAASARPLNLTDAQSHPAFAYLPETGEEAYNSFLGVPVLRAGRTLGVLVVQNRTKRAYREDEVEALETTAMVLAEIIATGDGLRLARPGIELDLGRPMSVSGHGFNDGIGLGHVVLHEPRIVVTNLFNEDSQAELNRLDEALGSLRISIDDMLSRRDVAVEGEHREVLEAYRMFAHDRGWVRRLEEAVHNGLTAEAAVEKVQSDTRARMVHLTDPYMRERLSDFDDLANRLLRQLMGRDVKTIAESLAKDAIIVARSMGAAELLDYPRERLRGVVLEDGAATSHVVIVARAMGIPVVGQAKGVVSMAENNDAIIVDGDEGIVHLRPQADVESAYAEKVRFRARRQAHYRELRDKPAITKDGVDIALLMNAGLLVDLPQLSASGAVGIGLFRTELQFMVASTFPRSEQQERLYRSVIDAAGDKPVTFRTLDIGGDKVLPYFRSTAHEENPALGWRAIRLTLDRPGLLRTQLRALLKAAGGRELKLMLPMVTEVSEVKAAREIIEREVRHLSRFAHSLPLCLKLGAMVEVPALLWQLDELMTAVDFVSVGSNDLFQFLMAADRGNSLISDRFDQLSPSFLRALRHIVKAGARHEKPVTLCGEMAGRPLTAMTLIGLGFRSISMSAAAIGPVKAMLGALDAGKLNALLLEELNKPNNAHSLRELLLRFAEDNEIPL

T1 sequence (Q8YE44 1-159): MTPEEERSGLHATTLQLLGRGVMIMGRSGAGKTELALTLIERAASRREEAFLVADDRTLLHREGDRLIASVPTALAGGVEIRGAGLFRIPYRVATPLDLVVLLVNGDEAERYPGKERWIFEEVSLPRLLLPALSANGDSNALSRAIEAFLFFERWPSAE

Row | SMILES | 32P NPr kinase assay, SDS-PAGE, phosphorimaging (HprK/P) | also measured
1 | Nc1ncnc2c1ncn2[C@@H]1O[C@H](COP(=O)(O)OP(=O)(O)OP(=O)(O)O)[C@@H](O)[C@H]1O [ATP] | – | 32P NPr kinase assay, SDS-PAGE, phosphorimaging (HprK/P; labelled compound, 25 µM [γ-32P]ATP, NPr as acceptor, no FBP or KPi, 5 mM MgCl2, pH 7.4, 37°C): HprK/P phosphorylated wild type NPr and NPrH30A in an ATP-dependent way
2 | O=P(O)(O)O [Pi] | inhibition of both the ATP- and PPi-dependent kinase activities of B. melitensis HprK/P | –
3 | O=P(O)(O)OP(=O)(O)O [PPi] | With both phosphoryl group donors, HprK/P was active as a kinase | –
4 | C=C(OP(=O)(O)O)C(=O)O [PEP] | – | 32P phosphotransfer to NPr, SDS-PAGE, phosphorimaging (EI^Ntr): the additional presence of EI allowed the phosphorylation of wild-type NPr
